{
  "source": "paper PMC8725944",
  "about": "“Design and synthesis of chromone-nitrogen mustard derivatives and evaluation of anti-breast cancer activity” (Journal of Enzyme Inhibition and Medicinal Chemistry, 2021)",
  "key": {"[1]": {"tested_on": "TNBC cell line MDA-MB-231", "assay": "CCK-8 assay, antiproliferative activity against MDA-MB-231", "settings": "Homo sapiens, MDA-MB-231, 72 h, read-out: IC50 MDA-MB-231"}, "MDA-MB-231 cells [2]": {"tested_on": "MDA-MB-231 cells", "assay": "Adhesion assay", "format": "cell-based, human", "settings": "22e 0.475, 0.95 and 1.9 μM, 72 h", "experimental": "Different concentrations of 22e (0, 0.475, 0.95 and 1.9 μM) were used to treat MDA-MB-231 cells for 72 h. Then the serum-free medium containing CaM stain was added, cell suspension (100 μL) was cultured to 96-well plates (2000 cells/well) for 1 h. Finally, plates were washed with PBS, fixed with 3.7% formaldehyde, washed with PBS again, and took pictures with fluorescence microscope."}, "MDA-MB-231 cells [3]": {"tested_on": "MDA-MB-231 cells", "assay": "Comet assay (DNA damage)", "format": "cell-based, human", "settings": "72 h, control 0.48%", "experimental": "DNA damage was detected by Comet Assay Kit (Keygen, Nanjing, China) according to the manufacturer’s instructions. Briefly, MDA-MB-231 cells were treated with 22e (0, 0.475, 0.95 and 1.9 μM) for 72 h. The collected cells were fixed on CometSlide for 15 min at 4 °C. Subsequently, the cells were incubated in lysis solution at 4 °C for 90 min, the slides were electrophoresed for 20 min, fixed in ethanol for 5 min, and stained with Vista Green DNA Dye. Finally, the data were got by fluorescence microscope."}, "MDA-MB-231 cells [4]": {"tested_on": "MDA-MB-231 cells", "assay": "Wound healing assay (migration)", "format": "cell-based, human", "settings": "22e 0.475, 0.95 and 1.9 μM, 24 h, versus untreated cells", "experimental": "MDA-MB-231 cells were cultured in 6-well plates at 37 °C for 24 h. After the cells attached, different concentrations of 22e (0, 0.475, 0.95 and 1.9 μM) were added. Sterile pipette tips were used to scratch evenly in 6-well plates, the floating cells were washed away with PBS, and the fresh culture medium was replaced. After incubation for 24 h, the cells were photographed and the migration distance was measured."}, "MDA-MB-231 cells [5]": {"tested_on": "MDA-MB-231 cells", "assay": "Transwell assay (invasion)", "format": "cell-based, human", "settings": "22e 0.475, 0.95 and 1.9 μM, 24 h", "experimental": "MDA-MB-231 cells were seeded in 24-well transwell plates upper chambers, different concentrations of 22e (0, 0.475, 0.95 and 1.9 μM) were incubated on the lower surface for 24 h. The cells in the upper surface of the membrane were removed, and the migrated or invaded cells of the membranes bottom surface were placed in 0.1% crystal violet for staining for 30 min. Finally, the cells that migrated or invaded of the chamber bottom were photographed and counted."}, "MDA-MB-231 cells [6]": {"tested_on": "MDA-MB-231 cells", "assay": "Cell-cycle analysis (PI staining, flow cytometry)", "format": "cell-based, human", "settings": "for cells in G2/M phase / cells in S phase / cells in G1 phase: 72 h; for cells in G2/M phase: control 11.04%; for cells in S phase: control 36.51%; for cells in G1 phase: control 52.44%"}, "MDA-MB-231 cells [7]": {"tested_on": "MDA-MB-231 cells", "assay": "Cell apoptosis assay (annexin V-FITC/PI, flow cytometry)", "format": "cell-based, human", "settings": "72 h, control 5.85%", "experimental": "MDA-MB-231 cells were cultured in 6-well plates at 37 °C for 24 h, and then different concentrations of 22e (0, 0.475, 0.95 and 1.9 μM) were added. After 72 h of incubation, the cells were collected and suspended in binding buffer (500 μL). Finally, annexin V-fluorescein isothiocyanate (Annexin V-FITC, 5 μL) and propidium iodide (PI, 5 μL) were added, and the reaction was kept at room temperature in the dark for 10 min, then cell apoptosis was measured by flow cytometry."}, "MDA-MB-231 cells [8]": {"tested_on": "MDA-MB-231 cells", "assay": "Detection of intracellular ROS (DCFH-DA, flow cytometry)", "format": "cell-based, human", "settings": "72 h, control 4.56%", "experimental": "MDA-MB-231 cells were seeded overnight in 6-well plates, treated with different concentrations of 22e (0, 0.475, 0.95 and 1.9 μM) for another 72 h. After digestion and washing, the cell suspension was prepared and cultured with fluorescent probe 2′,7′-dichlorodihydrofluorescein diacetate (DCFH-DA, Sigma-Aldrich, Darmstadt, Germany) at 37 °C for 20 min. Then, after the cells were washed, the intracellular reactive oxygen species (ROS) was measured by flow cytometry at 488 nm (excitation wavelength) and 530 nm (emission wavelength)."}},
  "data": [
    {"smiles": "COC(=O)[C@H](Cc1ccc(N(CCCl)CCCl)cc1)NC(=O)CCCC(=O)NCc1coc2ccc(OC)cc2c1=O", "note": "[Compound 22e, Methyl (S)-3-(4-(bis(2-chloroethyl)amino)phenyl)-2–(5-(((6-methoxy-4-oxo-4H-chromen-3-yl)methyl)amino)-5-oxopentanamido)propanoate]", "values": [
      {"measurement": "IC50", "setting": "[1]", "value": "1900 ± 180", "unit": "nM"},
      {"measurement": "adhesion of MDA-MB-231 cells, in words", "setting": "MDA-MB-231 cells [2]", "value": "inhibit the adhesion of MDA-MB-231 cells in a concentration-dependent manner"},
      {"measurement": "tail DNA percentage", "setting": "MDA-MB-231 cells [3]; 22e 0.475 μM", "value": 19.95, "unit": "%"},
      {"measurement": "tail DNA percentage", "setting": "MDA-MB-231 cells [3]; 22e 0.95 μM", "value": 38.15, "unit": "%"},
      {"measurement": "tail DNA percentage", "setting": "MDA-MB-231 cells [3]; 22e 1.9 μM", "value": 48.73, "unit": "%"},
      {"measurement": "wound closure distance (migration), in words", "setting": "MDA-MB-231 cells [4]", "value": "significantly shortened"},
      {"measurement": "MDA-MB-231 cells invasion, in words", "setting": "MDA-MB-231 cells [5]", "value": "significantly inhibited"},
      {"measurement": "cells in G2/M phase", "setting": "MDA-MB-231 cells [6]; 22e 0.475 μM", "value": 12.98, "unit": "%"},
      {"measurement": "cells in S phase", "setting": "MDA-MB-231 cells [6]; 22e 0.475 μM", "value": 36.58, "unit": "%"},
      {"measurement": "cells in G1 phase", "setting": "MDA-MB-231 cells [6]; 22e 0.475 μM", "value": 50.44, "unit": "%"},
      {"measurement": "cells in G2/M phase", "setting": "MDA-MB-231 cells [6]; 22e 0.95 μM", "value": 14.53, "unit": "%"},
      {"measurement": "cells in S phase", "setting": "MDA-MB-231 cells [6]; 22e 0.95 μM", "value": 34.59, "unit": "%"},
      {"measurement": "cells in G1 phase", "setting": "MDA-MB-231 cells [6]; 22e 0.95 μM", "value": 50.88, "unit": "%"},
      {"measurement": "cells in G2/M phase", "setting": "MDA-MB-231 cells [6]; 22e 1.9 μM", "value": 21.28, "unit": "%"},
      {"measurement": "cells in S phase", "setting": "MDA-MB-231 cells [6]; 22e 1.9 μM", "value": 36.21, "unit": "%"},
      {"measurement": "cells in G1 phase", "setting": "MDA-MB-231 cells [6]; 22e 1.9 μM", "value": 42.51, "unit": "%"},
      {"measurement": "cells in the S phase (in words)", "setting": "MDA-MB-231 cells [6]; 22e 0.475, 0.95 and 1.9 μM versus control", "value": "remained essentially unchanged"},
      {"measurement": "total apoptosis ratio", "setting": "MDA-MB-231 cells [7]; 22e 0.475 μM", "value": 11.00, "unit": "%"},
      {"measurement": "total apoptosis ratio", "setting": "MDA-MB-231 cells [7]; 22e 0.95 μM", "value": 16.27, "unit": "%"},
      {"measurement": "total apoptosis ratio", "setting": "MDA-MB-231 cells [7]; 22e 1.9 μM", "value": 42.12, "unit": "%"},
      {"measurement": "DCFH-DA positive cells ratio", "setting": "MDA-MB-231 cells [8]; 22e 0.475 μM", "value": 8.05, "unit": "%"},
      {"measurement": "DCFH-DA positive cells ratio", "setting": "MDA-MB-231 cells [8]; 22e 0.95 μM", "value": 18.47, "unit": "%"},
      {"measurement": "DCFH-DA positive cells ratio", "setting": "MDA-MB-231 cells [8]; 22e 1.9 μM", "value": 45.98, "unit": "%"}
    ]}
  ]
}
